In PubChem BioAssay (NCI):
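GI50: concentration for 50% inhibition of growth. TGI marks complete inhibition of growth.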

Legend:
Test in all cases: NCI-60 cell line screen, 384-well format
SK-MEL-5 melanoma = tested on: SK-MEL-5 melanoma
RPMI-8226 leukemia = tested on: RPMI-8226 leukemia
IGROV1 ovarian = tested on: IGROV1 ovarian
UACC-62 melanoma = tested on: UACC-62 melanoma
KM12 colon = tested on: KM12 colon
LOX IMVI melanoma = tested on: LOX IMVI melanoma
HS 578T breast = tested on: HS 578T breast
OVCAR-8 ovarian = tested on: OVCAR-8 ovarian
SNB-19 CNS = tested on: SNB-19 CNS
MDA-MB-435 melanoma = tested on: MDA-MB-435 melanoma
SF-295 CNS = tested on: SF-295 CNS
SW-620 colon = tested on: SW-620 colon
UO-31 renal = tested on: UO-31 renal
SR leukemia = tested on: SR leukemia
M14 melanoma = tested on: M14 melanoma
HOP-62 NSCLC = tested on: HOP-62 NSCLC
DU-145 prostate = tested on: DU-145 prostate
SNB-75 CNS = tested on: SNB-75 CNS
NCI-H23 lung = tested on: NCI-H23 lung
SN12C renal = tested on: SN12C renal
MALME-3M melanoma = tested on: MALME-3M melanoma
786-0 renal = tested on: 786-0 renal
TK-10 renal = tested on: TK-10 renal
SF-268 CNS = tested on: SF-268 CNS
NCI-H460 NSCLC = tested on: NCI-H460 NSCLC
OVCAR-3 ovarian = tested on: OVCAR-3 ovarian
HCC-2998 colon = tested on: HCC-2998 colon
CAKI-1 renal = tested on: CAKI-1 renal
HCT-15 colon = tested on: HCT-15 colon
A498 renal = tested on: A498 renal
NCI-H226 lung = tested on: NCI-H226 lung
T-47D breast = tested on: T-47D breast
HOP-92 NSCLC = tested on: HOP-92 NSCLC
NCI/ADR-RES ovarian = tested on: NCI/ADR-RES ovarian
MCF7 breast = tested on: MCF7 breast
MDA-MB-231 breast = tested on: MDA-MB-231 breast
COLO 205 colon = tested on: COLO 205 colon
RXF 393 renal = tested on: RXF 393 renal
MOLT-4 leukemia = tested on: MOLT-4 leukemia
HL-60(TB) leukemia = tested on: HL-60(TB) leukemia
CCRF-CEM leukemia = tested on: CCRF-CEM leukemia
SK-OV-3 ovarian = tested on: SK-OV-3 ovarian
BT-549 breast = tested on: BT-549 breast
NCI-H522 lung = tested on: NCI-H522 lung
K-562 leukemia = tested on: K-562 leukemia
ACHN renal = tested on: ACHN renal
UACC-257 melanoma = tested on: UACC-257 melanoma
A549 NSCLC = tested on: A549 NSCLC
EKVX NSCLC = tested on: EKVX NSCLC
SF-539 CNS = tested on: SF-539 CNS
MDA-MB-468 breast = tested on: MDA-MB-468 breast
OVCAR-4 ovarian = tested on: OVCAR-4 ovarian
HT29 colon = tested on: HT29 colon
U251 glioblastoma = tested on: U251 glioblastoma
OVCAR-5 ovarian = tested on: OVCAR-5 ovarian
PC-3 prostate = tested on: PC-3 prostate

CN(C)CCNC(=O)NC[C@H]1CC[C@@H]2[C@H](O1)c1cc(C(F)(F)F)ccc1N[C@H]2c1ccccc1
GI50 (SK-MEL-5 melanoma): 39.8 nM
TGI (SK-MEL-5 melanoma): 370 nM
GI50 (RPMI-8226 leukemia): 19.3 nM
TGI (RPMI-8226 leukemia): 38.9 nM
GI50 (IGROV1 ovarian): 10500 nM
TGI (IGROV1 ovarian): 27000 nM
GI50 (UACC-62 melanoma): 56 nM
TGI (UACC-62 melanoma): 14500 nM
GI50 (KM12 colon): 128 nM
TGI (KM12 colon): 11800 nM
GI50 (LOX IMVI melanoma): 1170 nM
TGI (LOX IMVI melanoma): 17600 nM
GI50 (HS 578T breast): 36 nM
TGI (HS 578T breast): 131 nM
GI50 (OVCAR-8 ovarian): 63.4 nM
TGI (OVCAR-8 ovarian): 16600 nM
GI50 (SNB-19 CNS): 163 nM
TGI (SNB-19 CNS): 19300 nM
GI50 (MDA-MB-435 melanoma): 21.8 nM
TGI (MDA-MB-435 melanoma): 45.8 nM
GI50 (SF-295 CNS): 171 nM
TGI (SF-295 CNS): 2060 nM
GI50 (SW-620 colon): 89.4 nM
TGI (SW-620 colon): 16000 nM
GI50 (UO-31 renal): 20000 nM
TGI (UO-31 renal): 85600 nM
GI50 (SR leukemia): 20.4 nM
TGI (SR leukemia): 41.6 nM
GI50 (M14 melanoma): 31.4 nM
TGI (M14 melanoma): 92.3 nM
GI50 (HOP-62 NSCLC): 618 nM
TGI (HOP-62 NSCLC): 18200 nM
GI50 (DU-145 prostate): 279 nM
TGI (DU-145 prostate): 4690 nM
GI50 (SNB-75 CNS): 152 nM
TGI (SNB-75 CNS): 16200 nM
GI50 (NCI-H23 lung): 124 nM
TGI (NCI-H23 lung): 1980 nM
GI50 (SN12C renal): 5120 nM
TGI (SN12C renal): 31300 nM
GI50 (MALME-3M melanoma): 387 nM
TGI (MALME-3M melanoma): 15000 nM
GI50 ([…]-0 renal): 528 nM
TGI (786-0 renal): 19000 nM
GI50 (TK-10 renal): 14000 nM
TGI (TK-10 renal): 28700 nM
GI50 (SF-268 CNS): 289 nM
TGI (SF-268 CNS): 16400 nM
GI50 (NCI-H460 NSCLC): 36 nM
TGI (NCI-H460 NSCLC): 130 nM
GI50 (OVCAR-3 ovarian): 37.5 nM
TGI (OVCAR-3 ovarian): 164 nM
GI50 (HCC-2998 colon): 93.2 nM
TGI (HCC-2998 colon): 11700 nM
GI50 (CAKI-1 renal): 223 nM
TGI (CAKI-1 renal): 26300 nM
GI50 (HCT-15 colon): 303 nM
TGI (HCT-15 colon): 12000 nM
GI50 (A498 renal): 88.3 nM
TGI (A498 renal): 18700 nM
GI50 (NCI-H226 lung): 2760 nM
TGI (NCI-H226 lung): 23100 nM
GI50 (T-47D breast): 325 nM
TGI (T-47D breast): 12900 nM
GI50 (HOP-92 NSCLC): 206 nM
TGI (HOP-92 NSCLC): 16100 nM
GI50 (NCI/ADR-RES ovarian): 4300 nM
TGI (NCI/ADR-RES ovarian): 18900 nM
GI50 (MCF7 breast): 64.9 nM
TGI (MCF7 breast): 14000 nM
GI50 (MDA-MB-231 breast): 235 nM
TGI (MDA-MB-231 breast): 13800 nM
GI50 (COLO 205 colon): 39.4 nM
TGI (COLO 205 colon): 156 nM
GI50 (RXF 393 renal): 78.4 nM
TGI (RXF 393 renal): 13300 nM
GI50 (MOLT-4 leukemia): 69.6 nM
TGI (MOLT-4 leukemia): 193 nM
GI50 (HL-60(TB) leukemia): 32.5 nM
TGI (HL-60(TB) leukemia): 82.4 nM
GI50 (CCRF-CEM leukemia): 28.9 nM
TGI (CCRF-CEM leukemia): 57 nM
GI50 (SK-OV-3 ovarian): 42.5 nM
TGI (SK-OV-3 ovarian): 18100 nM
GI50 (BT-549 breast): 113 nM
TGI (BT-549 breast): 10400 nM
GI50 (NCI-H522 lung): 29.8 nM
TGI (NCI-H522 lung): 73.6 nM
GI50 (K-562 leukemia): 53.3 nM
TGI (K-562 leukemia): 257 nM
GI50 (ACHN renal): 11300 nM
TGI (ACHN renal): 23500 nM
GI50 (UACC-257 melanoma): 375 nM
TGI (UACC-257 melanoma): 15100 nM
GI50 (A549 NSCLC): 124 nM
TGI (A549 NSCLC): 16900 nM
GI50 (EKVX NSCLC): 261 nM
TGI (EKVX NSCLC): 16300 nM
GI50 (SF-539 CNS): 93.7 nM
TGI (SF-539 CNS): 10800 nM
GI50 (MDA-MB-468 breast): 29.6 nM
TGI (MDA-MB-468 breast): 64.7 nM
GI50 (OVCAR-4 ovarian): 370 nM
TGI (OVCAR-4 ovarian): 10800 nM
GI50 (HT29 colon): 168 nM
TGI (HT29 colon): 443 nM
GI50 (U251 glioblastoma): 80.3 nM
TGI (U251 glioblastoma): 18100 nM
GI50 (OVCAR-5 ovarian): 380 nM
TGI (OVCAR-5 ovarian): 12700 nM
GI50 (PC-3 prostate): 128 nM
TGI (PC-3 prostate): 17700 nM
